Kd data for one compound are collected here from paper PMC4876393, “Structure of the Dictyostelium Myosin-II Heavy Chain Kinase A (MHCK-A) α-kinase domain apoenzyme reveals a novel autoinhibited conformation” (Scientific Reports, 2016).

Assay in all cases: Nucleotide binding assay with fluorescent mant-ADP on purified A-CAT, carried out as previously described (ref 51); at least 3 separate experiments.
For assay [1], the target named is T1, A-CAT WT (Dictyostelium discoideum, UniProt P42527).
T1 construct: gene mhkA; A-CAT: alpha-kinase domain and Thr825 autophosphorylation site of MHCK-A; expressed in E. coli
T1 sequence (P42527 552-841): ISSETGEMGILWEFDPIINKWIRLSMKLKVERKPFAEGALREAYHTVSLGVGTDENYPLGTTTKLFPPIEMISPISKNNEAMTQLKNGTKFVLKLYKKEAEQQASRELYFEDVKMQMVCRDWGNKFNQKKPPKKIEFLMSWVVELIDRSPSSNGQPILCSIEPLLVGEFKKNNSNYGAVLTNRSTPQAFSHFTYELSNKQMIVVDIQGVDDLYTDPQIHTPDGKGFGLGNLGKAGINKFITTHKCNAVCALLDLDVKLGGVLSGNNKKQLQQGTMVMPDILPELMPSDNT
The note with it: SD, n = 3. On the procedure:
(§1) Assays were carried out at 22 °C in a buffer containing 2 mM MgCl2, 1 mM dithiothreitol and 20 mM TES, pH 7.0. Kinase assays contained 20 μM myelin basic protein (MBP), 0.5–2 μM A-CAT and 200 μM [γ-^32P]ATP (specific activity 100 cpm/pmol). At each time point, 20 μl aliquots of the reaction mixture were spotted onto squares of Whatman P81 phosphocellulose paper, which were then washed 1% phosphoric acid, immersed in ScintiVerse Universal LS Mixture (Fisher Scientific), and counted using a Beckman LS 9000 scintillation counter. Assays to measure A-CAT-Δ809 activity in the presence of the QQG(p)TMVMPD and QQG(p)TMSMPD peptides were carried out as described. ATPase activity was assayed using 250 μM ATP and release of inorganic phosphate (Pi) was measured using the Pi ColorLock Gold phosphate detection system (Innova Biosciences). Data from the initial linear portion of the time courses were used to calculate kinase and ATPase activity. Nucleotide binding assays using mant-ATP and mant-ADP were carried out as previously described. Results represent the mean and standard deviation of at least 3 separate experiments.

In assay [2] the target is T2, D663A (Dictyostelium discoideum, UniProt P42527, D663A).
T2 construct: gene mhkA; A-CAT: alpha-kinase domain and Thr825 autophosphorylation site of MHCK-A; expressed in E. coli
T2 sequence (P42527 552-841 D663A): T1 sequence (P42527 552-841)
Conditions: read-out: mant-ADP Kd; SD, n = 3. On the procedure:
as §1

For assay [3], the target named is T3, D663S (Dictyostelium discoideum, UniProt P42527, D663S).
T3 construct: gene mhkA; A-CAT: alpha-kinase domain and Thr825 autophosphorylation site of MHCK-A
T3 sequence (P42527 552-841 D663S): T1 sequence (P42527 552-841)
The note with it: read-out: mant-ADP Kd; SD, n = 3. As to the method: as §1

For assay [4], the target named is T4, Y647A (Dictyostelium discoideum, UniProt P42527, Y647A).
T4 construct: gene mhkA; A-CAT: alpha-kinase domain and Thr825 autophosphorylation site of MHCK-A
T4 sequence (P42527 552-841 Y647A): T1 sequence (P42527 552-841)
The note with it: read-out: mant-ADP Kd; SD, n = 3. As to the method: as §1

Broadly, the Kd is the equilibrium constant for the complex coming apart.

As for `CNc1ccccc1C(=O)O[C@H]1[C@@H](O)[C@H](n2cnc3c(N)ncnc32)O[C@@H]1COP(=O)(O)OP(=O)(O)O` [mant-ADP, 2'/3'-O-(N-methylanthraniloyl)adenosine 5'-diphosphate], the Kd in assay [1] amounted to 15 ± 2 µM; in assay [2], 8 ± 2 µM; in assay [3] it was 12 ± 2 µM; in assay [4], 30 ± 2 µM.
